Test results from patent US8129424B2, “Indole derivatives as histamine 3 receptor inhibitors for the treatment of cognitive and sleep disorders, obesity and other CNS disorders” (Athersys, Inc., priority 2005, dated 2012).

Each molecule was assayed against T1, human histamine H3 receptor (Homo sapiens, UniProt Q9Y5N1) (assay: Radioligand competition binding assay with [125I]iodoproxyfan on RAGE-H3 cell membranes). Conditions: [125I]iodoproxyfan competition binding, apparent Ki by Cheng-Prussof equation.
T1 construct: expressed in transfected cells; host or cells: HT1080-Gqαi5 cells (human), pFG8-HH3 RAGE vector integrated; methotrexate-amplified clone RAGE-H3
Experimental: Representative compounds of the present invention that were prepared by the procedures of Examples 1-41 were evaluated in binding assays against cells expressing human H3 receptor by the following procedure.
The human histamine H3 receptor was stably expressed in HT1080 cells containing the chimeric G-protein, Gq[…]i5 (Coward et al., Anal Biochem 1999; 270:242-8). HT1080-Gqαi5 cells were grown in alpha-modified MEM containing 10% fetal bovine serum and 7 μg/ml blasticidin at 37° C. in 5% CO2/95% atmosphere. Cells (4.8×10^9) were irradiated with 50 rads from a ^137Cs source and the pFG8-HH3 RAGE (Random Activation of Gene Expression; see Harrington et al., Nature Biotechnology. 2001; 19:440-45) vector was subsequently integrated into the cells via electroporation (250V, 600 μF, 50Ω). The RAGE vector pFG8-HH3 contained cDNA sequence coding for the first exon (83 amino acids) of human H3 receptor. After electroporation, cells were plated in T75 flasks and grown in alpha-modified MEM. The culture medium was replaced 48 hours after electroporation with alpha-modified MEM, 10% fetal bovine serum, 500 μg/ml hygromycin B and 3 μg/ml puromycin. Medium was replaced every four days during cell expansion. To identify RAGE activated cells expressing the H3 receptor, pools of approximately 10,000 colonies (5×10^7-1.5×10^8 cells total) were screened by PCR for the desired gene product (using primers specific to the RAGE vector and exon 2 of the H3 receptor). […] Positive 100 cells/well pools were identified by PCR, confirmed by sequencing, and subsequently subcloned to 0.8 cells/well. Once clones expressing the H3 receptor were identified by PCR analysis, assays (FLIPR or radioligand binding) were performed to confirm that the activated gene produced functional protein. The protein expression in the initial clones obtained from the RAGE library was increased by growth in the presence of methotrexate. Since the integrated RAGE vector contains the DHFR gene, such treatment selects for cells that have amplified the genetic locus containing the RAGE insert. Subclones obtained after methotrexate amplification were tested for functional activity in FLIPR assays to identify the clone that was most suitable for HTS. The final HT1080-Gqαi5 RAGE clone (RAGE-H3) expressing the human histamine H3 receptor was grown in alpha-modified MEM containing 10% fetal bovine serum, 3 μg/ml puromycin, 500 μg/ml hygromycin B, 3.2 μM methotrexate at 37° C. in 5% CO2/95% atmosphere.
RAGE-H3 cells (10^9) were washed twice with cold PBS, scraped off the plates, and centrifuged at 1000×g for 5 minutes. Cells were resuspended in ice-cold 10 mM Tris HCl, pH 7.4, containing 5 mM EDTA and protease inhibitor cocktail tablets (Roche Molecular Biochemicals). After incubating on ice for 10 minutes, the cells were homogenized with a dounce homogenizer or a polytron tissue grinder, and centrifuged at 1000×g for 10 minutes at 4° C. The resulting supernatant was centrifuged at 32,000×g for 30 minutes at 4° C. The membrane pellets were resuspended in 50 mM Tris HCl, pH 7.4, and stored at −80° C. until use. Protein concentration was determined by the Bradford method (Bio-Rad Laboratories, CA).
Binding assays were carried out in 96-well polypropylene plates in 50 mM Tris HCl, pH 7.4, containing 1 mM EDTA. Reaction mixtures contained 100 μl of membrane suspension, 50 of 4% DMSO, and 50 μl of increasing amounts of [^125I]iodoproxyfan (final concentration 0.0005-1.8 nM for human H3 receptor saturation binding assay). Nonspecific binding was defined by adding 10 μM clobenpropit to the reaction mixtures. Competition binding assays were performed in a reaction mixture containing 100 μl of membrane suspension (˜20 μg of protein/well), 50 μl of [^125I]iodoproxyfan (final concentration of ˜0.15 nM) and 50 μl of test compound. Compounds were dissolved in DMSO and then diluted with 4% DMSO; the final maximal DMSO concentration in the binding assays was 1%. […]

T1 sequence (Q9Y5N1 whole entry): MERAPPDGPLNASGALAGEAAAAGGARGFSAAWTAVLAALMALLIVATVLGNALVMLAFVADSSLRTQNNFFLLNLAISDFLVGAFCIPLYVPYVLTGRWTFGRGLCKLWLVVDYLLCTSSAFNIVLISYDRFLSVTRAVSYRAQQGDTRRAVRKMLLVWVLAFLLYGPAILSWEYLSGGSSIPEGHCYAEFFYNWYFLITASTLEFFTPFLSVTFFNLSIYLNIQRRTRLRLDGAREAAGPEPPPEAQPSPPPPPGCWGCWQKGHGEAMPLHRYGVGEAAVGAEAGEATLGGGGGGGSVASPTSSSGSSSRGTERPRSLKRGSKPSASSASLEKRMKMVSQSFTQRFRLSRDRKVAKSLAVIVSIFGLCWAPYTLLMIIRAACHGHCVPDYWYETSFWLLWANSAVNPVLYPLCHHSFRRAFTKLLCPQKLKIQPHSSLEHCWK

SMILES	Ki
c1ccc2c(c1)cc(COC1CCCCC1)n2-c1ccc(OCCCN2CCCC2)cc1 [Example 33, 2-Cyclohexyloxymethyl-1-[4-(3-pyrrolidin-1-ylpropoxy)phenyl]-1H-indole]	< 10 nM
C[C@@H]1CCCN1CCCOc1ccc(-n2c(C(=O)N3CCCC3)cc3ccccc32)cc1 [Example 23, (1-{4-[3-(2R-Methylpyrrolidin-1-yl)propoxy]phenyl}-1H-indol-2-yl)pyrrolidin-1-ylmethanone]	< 10 nM
COc1ccc2c(c1)cc(C(=O)NC1CCCCC1)n2-c1ccc(OCCCN2CCC[C@H]2C)cc1 [Example 29, 5-Methoxy-1-{4-[3-(2R-methylpyrrolidin-1-yl)propoxy]phenyl}-1H-indole-2-carboxylic acid cyclohexylamide]	< 10 nM
COCc1cc2cc(C)ccc2n1-c1ccc(OCCCN2CCCC2)cc1 [Example 43, 5-Methyl-2-methoxymethyl-1-[4-(3-pyrrolidin-1-ylpropoxy)phenyl]-1H-indole]	< 10 nM
CCCCNC(=O)c1cc2ccccc2n1-c1ccc(OCCCN2CCC[C@H]2C)cc1 [Example 26, 1-{4-[3-(2R-Methylpyrrolidin-1-yl)propoxy]phenyl}-1H-indole-2-carboxylic acid butylamide]	< 10 nM
CC(C)OCc1cc2ccccc2n1-c1ccc(OCCCN2CCCC2)cc1 [Example 34, 2-Isopropoxymethyl-1-[4-(3-pyrrolidin-1-ylpropoxy)phenyl]-1H-indole]	< 10 nM
COc1ccc2c(c1)cc(C(=O)N1CCCC1)n2-c1ccc(OCCCN2CCC[C@H]2C)cc1 [Example 18, (5-Methoxy-1-{4-[3-(2R-methylpyrrolidin-1-yl)propoxy]phenyl}-1H-indol-2-yl)pyrrolidin-1-ylmethanone]	< 10 nM
COc1ccc2c(c1)cc(CO)n2-c1ccc(OCCCN2CCCC2)cc1 [Example 36, {5-Methoxy-1-[4-(3-pyrrolidin-1-ylpropoxy)phenyl]-1H-indol-2-yl}methanol]	< 10 nM
COCc1cc2cc(OC)ccc2n1-c1ccc(OCCCN2CCCC2)cc1 [Example 42, 5-Methoxy-2-methoxymethyl-1-[4-(3-pyrrolidin-1-ylpropoxy)phenyl]-1H-indole]	< 10 nM
Cc1cc2cc(F)ccc2n1-c1ccc(OCCCN2CCCC2)cc1 [Example 13, 2-Methyl-5-fluoro-1-[4-(3-pyrrolidin-1-ylpropoxy)phenyl]-1H-indole]	< 10 nM
COCCc1cc2ccccc2n1-c1ccc(OCCCN2CCCC2)cc1 [Example 40, 2-(2-Methoxyethyl)-1-[4-(3-pyrrolidin-1-ylpropoxy)phenyl]-1H-indole]	< 10 nM
Clc1ccc2ccn(-c3ccc(OCCCN4CCCC4)cc3)c2c1 [Example 12, 6-Chloro-1-[4-(3-pyrrolidin-1-ylpropoxy)phenyl]-1H-indole]	< 100 nM
C[C@@H]1CCCN1CCCOc1ccc(-n2c(C(=O)NCC3CCCCC3)cc3ccccc32)cc1 [Example 28, 1-{4-[3-(2R-Methylpyrrolidin-1-yl)propoxy]phenyl}-1H-indole-2-carboxylic acid cyclohexylmethylamide]	< 10 nM
Cc1cc2ccccc2n1-c1ccc(OCCCN2CCCC2)cc1 [Example 1, 2-Methyl-1-[4-(3-pyrrolidin-1-ylpropoxy)phenyl]-1H-indole]	< 10 nM
OCc1cc2ccccc2n1-c1ccc(OCCCN2CCCC2)cc1 [Example 31, {1-[4-(3-Pyrrolidin-1-ylpropoxy)phenyl]-1H-indol-2-yl}methanol]	< 10 nM
OCCc1cc2ccccc2n1-c1ccc(OCCCN2CCCC2)cc1 [Example 41, 2-{1-[4-(3-Pyrrolidin-1-ylpropoxy)phenyl]-1H-indol-2-yl}ethanol]	< 10 nM

SMILES	Ki
c1ccc2c(c1)cc(COC1CCCC1)n2-c1ccc(OCCCN2CCCC2)cc1 [Example 35, 2-Cyclopentyloxymethyl-1-[4-(3-pyrrolidin-1-ylpropoxy)phenyl]-1H-indole]	< 10 nM
C[C@@H]1CCCN1CCCOc1ccc(-n2c(C(=O)NC3CCCCC3)cc3ccccc32)cc1 [Example 21, 1-{4-[3-(2R-Methylpyrrolidin-1-yl)propoxy]phenyl}-1H-indole-2-carboxylic acid cyclohexylamide]	< 100 nM
COCc1cc2ccccc2n1-c1ccc(OCCCN2CCCC2)cc1 [Example 32, 2-Methoxymethyl-1-[4-(3-pyrrolidin-1-ylpropoxy)phenyl]-1H-indole]	< 10 nM
Cc1cc2ccccc2n1-c1ccc(OCCCN2CCCCC2)cc1 [Example 2, 2-Methyl-1-[4-(3-piperidin-1-ylpropoxy)phenyl]-1H-indole]	< 10 nM
CCCc1cc2ccccc2n1-c1ccc(OCCCN2CCCC2)cc1 [Example 38, 2-Propyl-1-[4-(3-pyrrolidin-1-ylpropoxy)phenyl]-1H-indole]	< 10 nM
Cc1cc2ccccc2n1-c1ccc(OCCCN2CCC[C@H]2C)cc1 [Example 3, 2-Methyl-1-{4-[3-(2R-methylpyrrolidin-1-yl)propoxy]phenyl}-1H-indole]	< 10 nM
C[C@@H]1CCCN1CCCOc1ccc(-n2c(C(=O)NC3CCC3)cc3ccccc32)cc1 [Example 19, 1-{4-[3-(2R-Methylpyrrolidin-1-yl)propoxy]phenyl}-1H-indole-2-carboxylic acid cyclobutylamide]	< 10 nM
C[C@@H]1CCCN1CCCOc1ccc(-n2c(C(=O)NC3CCCCCC3)cc3ccccc32)cc1 [Example 22, 1-{4-[3-(2R-Methylpyrrolidin-1-yl)propoxy]phenyl}-1H-indole-2-carboxylic acid cycloheptylamide]	< 100 nM
CC(C)CNC(=O)c1cc2ccccc2n1-c1ccc(OCCCN2CCC[C@H]2C)cc1 [Example 27, 1-{4-[3-(2R-Methylpyrrolidin-1-yl)propoxy]phenyl}-1H-indole-2-carboxylic acid isobutylamide]	< 10 nM
c1ccc2c(c1)cc(C1CC1)n2C1CCC(OCCCN2CCCC2)CC1 (single isomer, unassigned) [Example 39, 2-Cyclopropyl-1-[4-(3-pyrrolidin-1-ylpropoxy)cyclohexyl]-1H-indole]	< 10 nM
Cc1ccc2c(c1)cc(C)n2-c1ccc(OCCCN2CCCC2)cc1 [Example 11, 2,5-Dimethyl-1-[4-(3-pyrrolidin-1-ylpropoxy)phenyl]-1H-indole]	< 100 nM
C[C@@H]1CCCN1CCCOc1ccc(-n2c(C(=O)NC3CCCC3)cc3ccccc32)cc1 [Example 20, 1-{4-[3-(2R-Methylpyrrolidin-1-yl)propoxy]phenyl}-1H-indole-2-carboxylic acid cyclopentylamide]	< 10 nM
C[C@@H]1CCCN1CCCOc1ccc(-n2c(C(=O)N3CCCCC3)cc3ccccc32)cc1 [Example 24, (1-{4-[3-(2R-Methylpyrrolidin-1-yl)propoxy]phenyl}-1H-indol-2-yl)piperidin-1-ylmethanone]	< 10 nM
COCc1cc2cc(F)ccc2n1-c1ccc(OCCCN2CCCC2)cc1 [Example 44, 5-Fluoro-2-methoxymethyl-1-[4-(3-pyrrolidin-1-ylpropoxy)phenyl]-1H-indole]	< 10 nM
C[C@@H]1CCCN1CCCOc1ccc(-n2c(C(=O)N3CCOCC3)cc3ccccc32)cc1 [Example 25, (1-{4-[3-(2R-Methylpyrrolidin-1-yl)propoxy]phenyl}-1H-indol-2-yl)morpholin-4-ylmethanone]	< 10 nM
CCOC(=O)c1cc2ccccc2n1-c1ccc(OCCCN2CCCC2)cc1 [Example 30, 1-[4-(3-Pyrrolidin-1-ylpropoxy)phenyl]-1H-indole-2-carboxylic acid ethyl ester]	< 10 nM
